Structures can show the parent of a compound that is named as a salt.
What was measured:
[1] = molecular target: T1, Pyruvate kinase isolated from rabbit muscle (Oryctolagus cuniculus, UniProt P11974); test: Inhibition of pyruvate kinase (indirect assay quantifying ADP production); format: biochemical
T1 construct: Pyruvate kinase isolated from rabbit muscle; purchased Sigma-Aldrich; host or cells: rabbit muscle (tissue-derived enzyme)
Method: The compounds E-3-chlorophosphoenolpyruvate ditriethyl-ammonium salt (ECPDAT), Z-3-chlorophosphoenolpyruvate tritriethyl-ammonium salt (CPTP), phosphoenol-3-bromo-pyruvic acid mono-cyclohexyl ammonium salt (PBPA), 2-bromooxoethylphosphonic acid mono-cyclohexyl-ammonium salt (BOEPA) and 3-bromopyruvic acid (BrPyA) were tested for their efficiency at inhibiting pyruvate kinase. Pyruvate kinase isolated from rabbit muscle was purchased from Sigma-Aldrich. Pyruvate kinase was assayed indirectly by quantifying ADP production formed in the reaction ATP+pyruvate to ADP+phosphoenolpyruvate. Inhibitors were added to the reaction mixture immediately before the reaction was started by the addition of ATP.

[2] = test system: MCF7 (breast) cancer cell line; test: MTT assay, inhibition of cell proliferation, MCF7; format: cell-based; details: MCF7, 72 hours
Method: (§1) The compounds of the invention were tested for their inhibition potential of cell proliferation. MCF7 (breast) and SF268 (glioma) cancer cell lines were incubated with different concentrations of the compounds and their viability was assessed using an MTT (3-(4,5-dimethylthiazol-2-yl)-2,5-diphenyltetrazolium bromide) assay. The MTT assay is well known in the art (see for example Slater et al., Biochim. Biophys. Acta 77 (1963) 383). The cells were incubated with a given inhibitor for 72 hours and assayed.

[3] = test system: SF268 (glioma) cancer cell line; test: MTT assay, inhibition of cell proliferation, SF268; format: cell-based; details: SF268, 72 hours
Method: as §1

T1 sequence (P11974 whole entry): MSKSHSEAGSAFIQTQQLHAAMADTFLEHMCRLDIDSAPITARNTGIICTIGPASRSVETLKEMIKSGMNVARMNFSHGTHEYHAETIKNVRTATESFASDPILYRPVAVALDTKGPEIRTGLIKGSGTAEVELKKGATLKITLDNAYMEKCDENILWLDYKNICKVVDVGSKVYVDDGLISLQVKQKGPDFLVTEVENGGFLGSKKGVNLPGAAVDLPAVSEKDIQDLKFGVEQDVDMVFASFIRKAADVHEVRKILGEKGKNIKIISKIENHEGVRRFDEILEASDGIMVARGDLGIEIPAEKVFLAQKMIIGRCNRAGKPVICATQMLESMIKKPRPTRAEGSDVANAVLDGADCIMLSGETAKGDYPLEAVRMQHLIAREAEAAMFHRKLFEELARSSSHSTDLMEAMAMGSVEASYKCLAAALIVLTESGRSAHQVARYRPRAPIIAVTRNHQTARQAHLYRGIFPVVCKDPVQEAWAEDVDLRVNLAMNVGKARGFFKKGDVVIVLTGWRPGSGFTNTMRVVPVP

O=C(O)C(=CBr)OP(=O)(O)O [PBPA, phosphoenol-3-bromo-pyruvic acid mono-cyclohexyl ammonium salt]
Inhibition of pyruvate kinase compared with BrPyA [1]: inhibited pyruvate kinase at lower concentrations than BrPyA
inhibition at 0.1 µM ([1]; Concentration 0.1 μM, read-out: % Inhibition): 0%
inhibition at 1 µM ([1]; Concentration 1 μM, read-out: % Inhibition): 13.8%
inhibition at 10 µM ([1]; Concentration 10 μM, read-out: % Inhibition): 28.6%
Inhibition of cell proliferation [2]: inhibited cell proliferation
% (A-Blank relative to control) ([2]; 10 uM): 94.23%
A-Blank (Average-Blank) O.D. at 570 nm ([2]; 10 uM): 0.7632 O.D.
Average O.D. reading at 570 nm ([2]; 10 uM): 0.846 O.D.
% (A-Blank relative to control) ([2]; 25 uM): 97.16%
A-Blank (Average-Blank) O.D. at 570 nm ([2]; 25 uM): 0.787 O.D.
Average O.D. reading at 570 nm ([2]; 25 uM): 0.8698 O.D.
% (A-Blank relative to control) ([2]; 50 uM): 97.901%
A-Blank (Average-Blank) O.D. at 570 nm ([2]; 50 uM): 0.793 O.D.
Average O.D. reading at 570 nm ([2]; 50 uM): 0.8758 O.D.
% (A-Blank relative to control) ([2]; 75 uM): 98.827%
A-Blank (Average-Blank) O.D. at 570 nm ([2]; 75 uM): 0.8005 O.D.
Average O.D. reading at 570 nm ([2]; 75 uM): 0.8833 O.D.
% (A-Blank relative to control) ([2]; 100 uM): 95.71%
A-Blank (Average-Blank) O.D. at 570 nm ([2]; 100 uM): 0.7753 O.D.
Average O.D. reading at 570 nm ([2]; 100 uM): 0.858 O.D.
% (A-Blank relative to control) ([2]; 200 uM): 93.333%
A-Blank (Average-Blank) O.D. at 570 nm ([2]; 200 uM): 0.756 O.D.
Average O.D. reading at 570 nm ([2]; 200 uM): 0.8388 O.D.
% (A-Blank relative to control) ([2]; 300 uM): 84.9074%
A-Blank (Average-Blank) O.D. at 570 nm ([2]; 300 uM): 0.6877 O.D.
Average O.D. reading at 570 nm ([2]; 300 uM): 0.7705 O.D.
% (A-Blank relative to control) ([2]; 500 uM): 75.31%
A-Blank (Average-Blank) O.D. at 570 nm ([2]; 500 uM): 0.61 O.D.
Average O.D. reading at 570 nm ([2]; 500 uM): 0.6927 O.D.
Inhibition of cell proliferation [3]: inhibited cell proliferation
% (A-Blank relative to control) ([3]; 10 uM): 100.1%
A-Blank (Average-Blank) O.D. at 570 nm ([3]; 10 uM): 0.6935 O.D.
Average O.D. reading at 570 nm ([3]; 10 uM): 0.7798 O.D.
% (A-Blank relative to control) ([3]; 25 uM): 102.02%
A-Blank (Average-Blank) O.D. at 570 nm ([3]; 25 uM): 0.7068 O.D.
Average O.D. reading at 570 nm ([3]; 25 uM): 0.793 O.D.
% (A-Blank relative to control) ([3]; 50 uM): 99.567%
A-Blank (Average-Blank) O.D. at 570 nm ([3]; 50 uM): 0.6898 O.D.
Average O.D. reading at 570 nm ([3]; 50 uM): 0.776 O.D.
% (A-Blank relative to control) ([3]; 75 uM): 100.11%
A-Blank (Average-Blank) O.D. at 570 nm ([3]; 75 uM): 0.6935 O.D.
Average O.D. reading at 570 nm ([3]; 75 uM): 0.7798 O.D.
% (A-Blank relative to control) ([3]; 100 uM): 95.453%
A-Blank (Average-Blank) O.D. at 570 nm ([3]; 100 uM): 0.6613 O.D.
Average O.D. reading at 570 nm ([3]; 100 uM): 0.7475 O.D.
% (A-Blank relative to control) ([3]; 200 uM): 90.978%
A-Blank (Average-Blank) O.D. at 570 nm ([3]; 200 uM): 0.6303 O.D.
Average O.D. reading at 570 nm ([3]; 200 uM): 0.7165 O.D.
% (A-Blank relative to control) ([3]; 300 uM): 79.7546%
A-Blank (Average-Blank) O.D. at 570 nm ([3]; 300 uM): 0.5525 O.D.
Average O.D. reading at 570 nm ([3]; 300 uM): 0.6388 O.D.
% (A-Blank relative to control) ([3]; 500 uM): 74.49%
A-Blank (Average-Blank) O.D. at 570 nm ([3]; 500 uM): 0.516 O.D.
Average O.D. reading at 570 nm ([3]; 500 uM): 0.6022 O.D.

E-3-chlorophosphoenolpyruvate ditriethyl-ammonium salt [E-CPDA]
Inhibition of pyruvate kinase compared with BrPyA [1]: inhibited pyruvate kinase at lower concentrations than BrPyA
% Inhibition ([1]; Concentration 0.1 μM): 0%
% Inhibition ([1]; Concentration 1 μM): 10.9%
% Inhibition ([1]; Concentration 10 μM): 100%
Inhibition of cell proliferation [2]: inhibited cell proliferation
% (A-Blank relative to control) ([2]; 10 uM): 101.1%
A-Blank (Average-Blank) O.D. at 570 nm ([2]; 10 uM): 0.8245 O.D.
Average O.D. reading at 570 nm ([2]; 10 uM): 0.91 O.D.
% (A-Blank relative to control) ([2]; 25 uM): 97.333%
A-Blank (Average-Blank) O.D. at 570 nm ([2]; 25 uM): 0.7938 O.D.
Average O.D. reading at 570 nm ([2]; 25 uM): 0.8793 O.D.
% (A-Blank relative to control) ([2]; 50 uM): 86.726%
A-Blank (Average-Blank) O.D. at 570 nm ([2]; 50 uM): 0.7073 O.D.
Average O.D. reading at 570 nm ([2]; 50 uM): 0.7928 O.D.
% (A-Blank relative to control) ([2]; 75 uM): 78.449%
A-Blank (Average-Blank) O.D. at 570 nm ([2]; 75 uM): 0.6398 O.D.
Average O.D. reading at 570 nm ([2]; 75 uM): 0.7253 O.D.
% (A-Blank relative to control) ([2]; 100 uM): 72.072%
A-Blank (Average-Blank) O.D. at 570 nm ([2]; 100 uM): 0.5878 O.D.
Average O.D. reading at 570 nm ([2]; 100 uM): 0.6733 O.D.
% (A-Blank relative to control) ([2]; 200 uM): 68.486%
A-Blank (Average-Blank) O.D. at 570 nm ([2]; 200 uM): 0.5585 O.D.
Average O.D. reading at 570 nm ([2]; 200 uM): 0.644 O.D.
% (A-Blank relative to control) ([2]; 300 uM): 7.8786%
A-Blank (Average-Blank) O.D. at 570 nm ([2]; 300 uM): 0.06425 O.D.
Average O.D. reading at 570 nm ([2]; 300 uM): 0.1497 O.D.
% (A-Blank relative to control) ([2]; 500 uM): 2.759%
A-Blank (Average-Blank) O.D. at 570 nm ([2]; 500 uM): 0.0225 O.D.
Average O.D. reading at 570 nm ([2]; 500 uM): 0.108 O.D.
Inhibition of cell proliferation [3]: inhibited cell proliferation
% (A-Blank relative to control) ([3]; 10 uM): 80.1%
A-Blank (Average-Blank) O.D. at 570 nm ([3]; 10 uM): 0.672 O.D.
Average O.D. reading at 570 nm ([3]; 10 uM): 0.777 O.D.
% (A-Blank relative to control) ([3]; 25 uM): 80.453%
A-Blank (Average-Blank) O.D. at 570 nm ([3]; 25 uM): 0.675 O.D.
Average O.D. reading at 570 nm ([3]; 25 uM): 0.78 O.D.
% (A-Blank relative to control) ([3]; 50 uM): 64.243%
A-Blank (Average-Blank) O.D. at 570 nm ([3]; 50 uM): 0.539 O.D.
Average O.D. reading at 570 nm ([3]; 50 uM): 0.644 O.D.
% (A-Blank relative to control) ([3]; 75 uM): 44.458%
A-Blank (Average-Blank) O.D. at 570 nm ([3]; 75 uM): 0.373 O.D.
Average O.D. reading at 570 nm ([3]; 75 uM): 0.478 O.D.
% (A-Blank relative to control) ([3]; 100 uM): 30.513%
A-Blank (Average-Blank) O.D. at 570 nm ([3]; 100 uM): 0.256 O.D.
Average O.D. reading at 570 nm ([3]; 100 uM): 0.361 O.D.
% (A-Blank relative to control) ([3]; 200 uM): 13.23%
A-Blank (Average-Blank) O.D. at 570 nm ([3]; 200 uM): 0.111 O.D.
Average O.D. reading at 570 nm ([3]; 200 uM): 0.216 O.D.
% (A-Blank relative to control) ([3]; 300 uM): 6.555%
A-Blank (Average-Blank) O.D. at 570 nm ([3]; 300 uM): 0.055 O.D.
Average O.D. reading at 570 nm ([3]; 300 uM): 0.16 O.D.
% (A-Blank relative to control) ([3]; 500 uM): 3.099%
A-Blank (Average-Blank) O.D. at 570 nm ([3]; 500 uM): 0.026 O.D.
Average O.D. reading at 570 nm ([3]; 500 uM): 0.131 O.D.

From patent US8026278B2, “Inhibitors of pyruvate kinase as therapeutic agents for cancer” (priority 2005, dated 2011)
